Test results from the kinase profiling compilation of Christmann-Franck et al. (2016).

Key:
Experiment in all cases: radiometric filter-binding kinase assay, Kinase HotSpot
Conditions in all cases: compound 0.5 µM; ATP 10 µM
FGR (human) = FGR (human) (UniProt P09769)
GRK5 (human) = GRK5 (human) (UniProt P34947)
CLK2 (human) = CLK2 (human) (UniProt P49760)
IKBKE (human) = IKBKE (human) (UniProt Q14164)
DAPK1 (human) = DAPK1 (human) (UniProt P53355)
MUSK (human) = MUSK (human) (UniProt O15146)
YES1 (human) = YES1 (human) (UniProt P07947)
Chain of YES1 (human) (P07947 whole entry, looked up): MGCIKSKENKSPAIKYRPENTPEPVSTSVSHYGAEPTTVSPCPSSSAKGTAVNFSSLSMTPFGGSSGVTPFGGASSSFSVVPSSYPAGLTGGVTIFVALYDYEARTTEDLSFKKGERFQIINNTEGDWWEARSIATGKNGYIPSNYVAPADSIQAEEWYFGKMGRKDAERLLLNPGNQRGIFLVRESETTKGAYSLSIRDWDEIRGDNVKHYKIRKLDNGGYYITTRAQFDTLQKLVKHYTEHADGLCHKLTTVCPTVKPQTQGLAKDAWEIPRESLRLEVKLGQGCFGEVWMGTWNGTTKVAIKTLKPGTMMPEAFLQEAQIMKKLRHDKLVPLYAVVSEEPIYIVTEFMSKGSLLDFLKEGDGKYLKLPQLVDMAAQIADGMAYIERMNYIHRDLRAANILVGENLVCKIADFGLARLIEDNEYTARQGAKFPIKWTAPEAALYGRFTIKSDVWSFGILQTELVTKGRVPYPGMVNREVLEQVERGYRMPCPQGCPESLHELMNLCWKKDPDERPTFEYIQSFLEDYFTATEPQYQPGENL

AURKA (human) = AURKA (human) (UniProt O14965)
TYRO3 (human) = TYRO3 (human) (UniProt Q06418)
PDPK1 (human) = PDPK1 (human) (UniProt O15530)
MAPKAPK5 (human) = MAPKAPK5 (human) (UniProt Q8IW41)
WNK2 (human) = WNK2 (human) (UniProt Q9Y3S1)
MAPK14 (human) = MAPK14 (human) (UniProt Q16539)
Chain of MAPK14 (human) (Q16539 whole entry, looked up): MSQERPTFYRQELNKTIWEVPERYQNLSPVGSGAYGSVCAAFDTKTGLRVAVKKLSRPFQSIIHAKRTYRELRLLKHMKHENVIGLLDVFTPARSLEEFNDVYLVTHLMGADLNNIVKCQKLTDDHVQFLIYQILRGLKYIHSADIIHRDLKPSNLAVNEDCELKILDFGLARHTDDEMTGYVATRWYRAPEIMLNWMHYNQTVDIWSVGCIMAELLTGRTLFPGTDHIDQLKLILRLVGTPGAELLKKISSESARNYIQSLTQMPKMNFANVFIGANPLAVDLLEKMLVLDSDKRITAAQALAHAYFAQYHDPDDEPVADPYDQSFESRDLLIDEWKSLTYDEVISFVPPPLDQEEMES

MAP4K5 (human) = MAP4K5 (human) (UniProt Q9Y4K4)
PAK4 (human) = PAK4 (human) (UniProt O96013)
EPHB4 (human) = EPHB4 (human) (UniProt P54760)
PIM1 (human) = PIM1 (human) (UniProt P11309)
PIM3 (human) = PIM3 (human) (UniProt Q86V86)
FRK (human) = FRK (human) (UniProt P42685)
PHKG1 (human) = PHKG1 (human) (UniProt Q16816)
INSR (human) = INSR (human) (UniProt P06213)
Chain of INSR (human) (P06213 whole entry, looked up): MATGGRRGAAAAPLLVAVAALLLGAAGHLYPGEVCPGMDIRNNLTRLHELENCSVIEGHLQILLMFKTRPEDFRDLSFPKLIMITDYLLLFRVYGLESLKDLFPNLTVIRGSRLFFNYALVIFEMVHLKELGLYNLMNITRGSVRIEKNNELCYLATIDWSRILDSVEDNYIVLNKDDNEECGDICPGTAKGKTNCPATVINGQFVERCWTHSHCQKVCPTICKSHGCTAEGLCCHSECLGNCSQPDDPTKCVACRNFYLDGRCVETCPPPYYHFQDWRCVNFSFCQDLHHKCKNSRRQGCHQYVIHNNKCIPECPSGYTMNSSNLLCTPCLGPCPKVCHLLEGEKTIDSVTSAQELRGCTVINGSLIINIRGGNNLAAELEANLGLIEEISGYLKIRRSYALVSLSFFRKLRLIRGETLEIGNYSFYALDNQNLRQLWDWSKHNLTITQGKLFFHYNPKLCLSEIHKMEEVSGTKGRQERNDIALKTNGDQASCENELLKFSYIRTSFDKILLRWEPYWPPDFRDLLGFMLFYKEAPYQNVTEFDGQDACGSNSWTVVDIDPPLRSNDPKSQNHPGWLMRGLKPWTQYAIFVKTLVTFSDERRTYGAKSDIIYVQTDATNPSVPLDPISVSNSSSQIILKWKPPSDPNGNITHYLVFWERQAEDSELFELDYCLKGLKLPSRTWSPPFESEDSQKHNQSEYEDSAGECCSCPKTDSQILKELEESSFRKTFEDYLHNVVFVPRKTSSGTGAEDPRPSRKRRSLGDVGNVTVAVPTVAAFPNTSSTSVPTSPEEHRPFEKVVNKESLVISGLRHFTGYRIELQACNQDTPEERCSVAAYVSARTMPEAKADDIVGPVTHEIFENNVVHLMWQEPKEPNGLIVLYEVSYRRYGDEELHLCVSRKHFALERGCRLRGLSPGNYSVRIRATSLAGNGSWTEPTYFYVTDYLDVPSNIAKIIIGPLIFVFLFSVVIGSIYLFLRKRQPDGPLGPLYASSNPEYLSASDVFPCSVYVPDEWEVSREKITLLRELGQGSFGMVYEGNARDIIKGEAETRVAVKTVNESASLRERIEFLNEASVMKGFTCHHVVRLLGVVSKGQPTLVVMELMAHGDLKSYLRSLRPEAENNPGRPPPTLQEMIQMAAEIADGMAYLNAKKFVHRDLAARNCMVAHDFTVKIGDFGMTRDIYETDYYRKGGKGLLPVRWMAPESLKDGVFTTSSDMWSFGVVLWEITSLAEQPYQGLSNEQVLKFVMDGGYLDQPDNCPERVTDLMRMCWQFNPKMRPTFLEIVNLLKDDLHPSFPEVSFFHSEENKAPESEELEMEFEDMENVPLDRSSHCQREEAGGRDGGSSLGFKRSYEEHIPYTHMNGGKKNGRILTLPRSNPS

MARK2 (human) = MARK2 (human) (UniProt Q7KZI7)
GSG2 (human) = GSG2 (human) (UniProt Q8TF76)
MAPK11 (human) = MAPK11 (human) (UniProt Q15759)
FGFR1 (human) = FGFR1 (human) (UniProt P11362)
MAPK13 (human) = MAPK13 (human) (UniProt O15264)
EPHA8 (human) = EPHA8 (human) (UniProt P29322)
MAP3K7 TAB1 (human) = MAP3K7 TAB1 (human) (UniProt O43318+Q15750)
TGFBR1 (human) = TGFBR1 (human) (UniProt P36897)
RPS6KA3 KD1 KD2 (human) = RPS6KA3 KD1 KD2 (human) (UniProt P51812)
PRKG2 (human) = PRKG2 (human) (UniProt Q13237)
PLK3 (human) = PLK3 (human) (UniProt Q9H4B4)
[1] = target: JAK1 JH1 catalytic (human) (UniProt P23458)
PRKCA (human) = PRKCA (human) (UniProt P17252)
PRKCH (human) = PRKCH (human) (UniProt P24723)
Chain of PRKCH (human) (P24723 whole entry, looked up): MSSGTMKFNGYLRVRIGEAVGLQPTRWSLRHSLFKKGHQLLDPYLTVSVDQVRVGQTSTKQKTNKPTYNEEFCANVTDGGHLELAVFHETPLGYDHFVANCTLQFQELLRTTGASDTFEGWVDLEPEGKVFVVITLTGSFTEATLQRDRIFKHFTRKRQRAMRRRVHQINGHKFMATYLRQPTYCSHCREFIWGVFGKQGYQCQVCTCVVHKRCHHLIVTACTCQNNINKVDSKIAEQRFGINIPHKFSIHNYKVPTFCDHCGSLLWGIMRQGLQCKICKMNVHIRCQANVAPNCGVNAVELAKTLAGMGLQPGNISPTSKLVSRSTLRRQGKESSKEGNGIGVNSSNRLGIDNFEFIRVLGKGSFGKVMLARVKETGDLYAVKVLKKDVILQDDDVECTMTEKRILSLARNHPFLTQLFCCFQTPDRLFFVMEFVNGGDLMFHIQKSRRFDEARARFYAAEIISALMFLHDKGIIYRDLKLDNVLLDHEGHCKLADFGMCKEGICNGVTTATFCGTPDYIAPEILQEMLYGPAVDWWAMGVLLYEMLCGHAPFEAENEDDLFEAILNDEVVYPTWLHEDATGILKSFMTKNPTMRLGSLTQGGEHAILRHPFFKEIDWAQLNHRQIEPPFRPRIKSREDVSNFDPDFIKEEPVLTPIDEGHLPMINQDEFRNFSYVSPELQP

CDK5 CDK5R1 p35 (human) = CDK5 CDK5R1 p35 (human) (UniProt Q00535+Q15078)
MARK1 (human) = MARK1 (human) (UniProt Q9P0L2)
PLK2 (human) = PLK2 (human) (UniProt Q9NYY3)
SGK2 (human) = SGK2 (human) (UniProt Q9HBY8)
PRKCD (human) = PRKCD (human) (UniProt Q05655)
ALK (human) = ALK (human) (UniProt Q9UM73)
FES (human) = FES (human) (UniProt P07332)
Chain of FES (human) (P07332 whole entry, looked up): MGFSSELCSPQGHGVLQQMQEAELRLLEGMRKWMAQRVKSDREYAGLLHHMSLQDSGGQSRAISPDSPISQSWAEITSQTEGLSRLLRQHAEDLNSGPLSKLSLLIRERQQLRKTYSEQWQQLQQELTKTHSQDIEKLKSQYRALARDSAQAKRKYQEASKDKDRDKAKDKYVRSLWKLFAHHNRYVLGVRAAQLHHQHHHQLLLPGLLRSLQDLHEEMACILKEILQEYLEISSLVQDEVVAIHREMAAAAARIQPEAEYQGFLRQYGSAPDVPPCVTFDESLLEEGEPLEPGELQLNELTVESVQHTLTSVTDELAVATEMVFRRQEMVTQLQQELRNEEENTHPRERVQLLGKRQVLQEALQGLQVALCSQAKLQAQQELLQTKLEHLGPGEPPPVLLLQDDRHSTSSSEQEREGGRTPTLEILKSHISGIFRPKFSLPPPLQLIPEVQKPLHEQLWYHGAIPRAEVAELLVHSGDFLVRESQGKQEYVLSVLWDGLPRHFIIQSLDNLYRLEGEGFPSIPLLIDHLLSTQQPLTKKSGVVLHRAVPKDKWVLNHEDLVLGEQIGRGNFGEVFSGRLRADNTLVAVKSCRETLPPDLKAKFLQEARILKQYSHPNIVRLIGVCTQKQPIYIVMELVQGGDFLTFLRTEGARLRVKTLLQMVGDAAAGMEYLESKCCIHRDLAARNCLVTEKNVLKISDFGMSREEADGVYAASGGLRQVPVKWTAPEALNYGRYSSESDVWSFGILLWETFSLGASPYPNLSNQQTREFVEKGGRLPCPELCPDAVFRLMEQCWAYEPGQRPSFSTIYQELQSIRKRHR

Chain of GRK5 (human) (P34947 whole entry, looked up): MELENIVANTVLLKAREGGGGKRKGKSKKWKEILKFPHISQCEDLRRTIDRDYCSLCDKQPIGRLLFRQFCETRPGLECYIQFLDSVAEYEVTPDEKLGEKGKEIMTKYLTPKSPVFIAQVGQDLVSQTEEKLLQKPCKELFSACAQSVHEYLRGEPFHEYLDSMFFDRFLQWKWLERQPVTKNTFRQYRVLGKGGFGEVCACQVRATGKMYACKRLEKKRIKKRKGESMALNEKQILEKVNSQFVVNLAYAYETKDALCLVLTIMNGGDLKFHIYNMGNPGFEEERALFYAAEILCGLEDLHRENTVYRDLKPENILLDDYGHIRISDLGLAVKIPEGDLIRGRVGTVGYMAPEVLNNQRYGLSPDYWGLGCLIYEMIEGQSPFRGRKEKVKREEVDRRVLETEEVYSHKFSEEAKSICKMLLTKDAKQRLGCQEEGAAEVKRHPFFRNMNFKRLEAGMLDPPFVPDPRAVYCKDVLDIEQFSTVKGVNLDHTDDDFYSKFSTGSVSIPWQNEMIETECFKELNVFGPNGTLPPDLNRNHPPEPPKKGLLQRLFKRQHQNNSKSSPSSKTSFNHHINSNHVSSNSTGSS

In the case of CC(C)n1cnc2c(Nc3cccc(Cl)c3)nc(NCCO)nc21, the residual activity (FGR (human)) is reported as 61.5%, the residual activity (GRK5 (human)) is reported as 99.4% and the residual activity (CLK2 (human)) is reported as 25%. For the same compound, the residual activity (IKBKE (human)) was 97.6%, the residual activity (DAPK1 (human)) was 78.8% and the residual activity (MUSK (human)) was 58.6%. For the same compound, the residual activity (YES1 (human)) was 33.7%, the residual activity (AURKA (human)) was 108% and the residual activity (TYRO3 (human)) was 92.7%. The residual activity (PDPK1 (human)) was 96.8%, the residual activity (MAPKAPK5 (human)) was 68.6% and the residual activity (WNK2 (human)) was 93.6%. The residual activity (MAPK14 (human)) was 90.7%, the residual activity (MAP4K5 (human)) was 81.5% and the residual activity (PAK4 (human)) was 105%. For the same compound, the residual activity (EPHB4 (human)) was 82%, the residual activity (PIM1 (human)) was 93.9% and the residual activity (PIM3 (human)) was 90.4%. For the same compound, the residual activity (FRK (human)) was 94.2%, the residual activity (PHKG1 (human)) was 75.8% and the residual activity (INSR (human)) was 97.3%. The residual activity (MARK2 (human)) was 98.7%, the residual activity (GSG2 (human)) was 94.7% and the residual activity (MAPK11 (human)) was 92.2%. It also gave a residual activity (FGFR1 (human)) of 84.2%, a residual activity (MAPK13 (human)) of 99% and a residual activity (EPHA8 (human)) of 98.2%. It also gave a residual activity (MAP3K7 TAB1 (human)) of 92.7%, a residual activity (TGFBR1 (human)) of 97.7% and a residual activity (RPS6KA3 KD1 KD2 (human)) of 60.1%. It also gave a residual activity (PRKG2 (human)) of 82.7%, a residual activity (PLK3 (human)) of 48.5% and a residual activity [1] of 103%. For the same compound, the residual activity (PRKCA (human)) was 78.6%, the residual activity (PRKCH (human)) was 99.4% and the residual activity (CDK5 CDK5R1 p35 (human)) was 22.7%. For the same compound, the residual activity (MARK1 (human)) was 87.6%, the residual activity (PLK2 (human)) was 95.9% and the residual activity (SGK2 (human)) was 97.4%. It also gave a residual activity (PRKCD (human)) of 89.1%, a residual activity (ALK (human)) of 91.8% and a residual activity (FES (human)) of 66.2%.

With O=C(NC(NC(=S)Nc1ccc(F)c([N+](=O)[O-])c1)C(Cl)(Cl)Cl)C(c1ccccc1)c1ccccc1 (stereo not drawn) the residual activity (FGR (human)) was 84.5%, the residual activity (GRK5 (human)) was 105% and the residual activity (CLK2 (human)) was 93.5%. It also gave a residual activity (IKBKE (human)) of 106%, a residual activity (DAPK1 (human)) of 75.1% and a residual activity (MUSK (human)) of 106%. For the same compound, the residual activity (YES1 (human)) was 94.6%, the residual activity (AURKA (human)) was 80.8% and the residual activity (TYRO3 (human)) was 108%. The residual activity (PDPK1 (human)) was 112%, the residual activity (MAPKAPK5 (human)) was 102% and the residual activity (WNK2 (human)) was 117%. The residual activity (MAPK14 (human)) was 101%, the residual activity (MAP4K5 (human)) was 91% and the residual activity (PAK4 (human)) was 118%. For the same compound, the residual activity (EPHB4 (human)) was 101%, the residual activity (PIM1 (human)) was 101% and the residual activity (PIM3 (human)) was 120%. The residual activity (FRK (human)) was 103%, the residual activity (PHKG1 (human)) was 104% and the residual activity (INSR (human)) was 100%. For the same compound, the residual activity (MARK2 (human)) was 92.3%, the residual activity (GSG2 (human)) was 109% and the residual activity (MAPK11 (human)) was 104%. The residual activity (FGFR1 (human)) was 97.7%, the residual activity (MAPK13 (human)) was 107% and the residual activity (EPHA8 (human)) was 104%. It also gave a residual activity (MAP3K7 TAB1 (human)) of 89.7%, a residual activity (TGFBR1 (human)) of 92.6% and a residual activity (RPS6KA3 KD1 KD2 (human)) of 96.2%. It also gave a residual activity (PRKG2 (human)) of 96.6%, a residual activity (PLK3 (human)) of 94.4% and a residual activity [1] of 106%. The residual activity (PRKCA (human)) was 73.1%, the residual activity (PRKCH (human)) was 103% and the residual activity (MARK1 (human)) was 101%. It also gave a residual activity (PLK2 (human)) of 92.9%, a residual activity (SGK2 (human)) of 119% and a residual activity (PRKCD (human)) of 91.2%. For the same compound, the residual activity (ALK (human)) was 110% and the residual activity (FES (human)) was 104%.
